From US11046672B2, “Indolinones compounds and their use in the treatment of fibrotic diseases” (RESPIVERT LIMITED, priority 2015, dated 2021)
“And” between values parts separate entries of the source, which are not always exact repeats. Equal entries are not always repeated.

How the values were obtained:
PDGFRβ [1] = biological target: T1, PDGFRβ (Homo sapiens (Human), UniProt P09619); assay: PDGF-BB induced phosphorylation of PDGFRβ in fibroblasts (MRC5 cells, HTRF); assay type: cell-based; settings: MRC5 cells; n = 1 unless otherwise indicated; read-out: PDGFBB-induced PDGFRβ phosphorylation in MRC5 cells (IC50)
MRC5 cells = assay: Cell viability assay in MRC5 cells (MTT)
PDGFRβ [2] = biological target: T1, PDGFRβ; settings: read-out: Ki PDGFRβ; mean, n = 2 unless otherwise indicated
PAMPA permeability assay = assay type: in vitro ADME; settings: for recovery at 5 hr, 10 μM: pH 7, PAMPA; for Papp at 5 h, 10 μM: pH 7, pH 7, 10 μM
[3] = PAMPA, donor and acceptor compartments

T1 sequence (P09619 33-1106): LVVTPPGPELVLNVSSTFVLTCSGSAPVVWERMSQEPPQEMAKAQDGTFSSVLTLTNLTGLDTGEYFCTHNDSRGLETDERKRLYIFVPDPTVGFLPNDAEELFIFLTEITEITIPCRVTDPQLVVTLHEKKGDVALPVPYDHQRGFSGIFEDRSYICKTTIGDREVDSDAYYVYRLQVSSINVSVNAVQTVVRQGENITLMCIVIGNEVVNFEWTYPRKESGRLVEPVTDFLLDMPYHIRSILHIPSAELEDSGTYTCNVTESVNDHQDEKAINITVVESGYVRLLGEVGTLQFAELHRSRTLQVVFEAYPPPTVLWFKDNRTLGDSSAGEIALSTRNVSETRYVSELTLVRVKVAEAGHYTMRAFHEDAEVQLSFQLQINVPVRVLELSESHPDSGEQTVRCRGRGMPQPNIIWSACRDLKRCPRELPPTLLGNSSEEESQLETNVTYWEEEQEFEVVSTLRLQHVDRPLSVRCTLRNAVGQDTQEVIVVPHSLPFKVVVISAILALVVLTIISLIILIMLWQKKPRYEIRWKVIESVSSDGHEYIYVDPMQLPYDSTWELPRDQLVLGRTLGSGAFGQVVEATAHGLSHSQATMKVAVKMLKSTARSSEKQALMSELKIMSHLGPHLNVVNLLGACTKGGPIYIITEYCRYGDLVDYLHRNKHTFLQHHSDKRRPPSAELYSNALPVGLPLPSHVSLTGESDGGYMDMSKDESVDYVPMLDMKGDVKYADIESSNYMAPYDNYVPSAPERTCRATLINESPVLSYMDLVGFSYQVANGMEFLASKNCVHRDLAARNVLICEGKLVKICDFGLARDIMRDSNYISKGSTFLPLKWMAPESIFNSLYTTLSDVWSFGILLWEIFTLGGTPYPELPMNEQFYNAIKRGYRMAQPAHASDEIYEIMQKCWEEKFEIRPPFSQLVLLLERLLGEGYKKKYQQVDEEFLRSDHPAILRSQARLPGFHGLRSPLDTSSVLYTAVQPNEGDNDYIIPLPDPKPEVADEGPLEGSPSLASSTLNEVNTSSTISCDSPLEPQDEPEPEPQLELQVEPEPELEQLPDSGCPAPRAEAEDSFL

SMILES	IC50 (PDGFRβ [1])	Ki (PDGFRβ [2])	recovery at 5 hr, 10 μM (PAMPA permeability assay; [3])	Papp at 5 h, 10 μM (PAMPA permeability assay; PAMPA, 5 hr)	% Recovery (PAMPA permeability assay; [3])	Mean Papp (PAMPA permeability assay; pH 7, 10 μM, 5 hr)	Cell viability at 100 nM (%) (MRC5 cells)	Cell viability at 300 nM (%) (MRC5 cells)	Cell viability at 1000 nM (%) (MRC5 cells)
CNC(=O)CN1CCN(CCON(C)C(=O)c2ccc(N/C(=C3\C(=O)Nc4cc(C(=O)OC)c(C)cc43)c3ccccc3)cc2)CC1 [Example 9, (Z)-Methyl 5-methyl-3-(((4-(methyl(2-(4-(2-(methylamino)-2-oxoethyl)piperazin-1-yl)ethoxy)carbamoyl)phenyl)amino)(phenyl)methylene)-2-oxoindoline-6-carboxylate]	8.45 nM		82.9%	0.0761 ×10⁻⁶ cm/s			129.9%	96.3%	88.6%
COC(=O)c1ccc2c(c1)NC(=O)/C2=C(\Nc1ccc(S(=O)(=O)N(C)OC)cc1)c1ccccc1 [Example 11]	15.3 nM						104.8%	91.5 (n = 2) %	94.8 (n = 2) %
COC(=O)c1ccc2c(c1)NC(=O)/C2=C(\Nc1ccc(C(=O)NOCCN(C)C)c(F)c1)c1ccccc1 [Example 20]		11.1 nM		0.0305 ×10⁻⁶ cm/s	91.7% and 66.5%	0.0296 10^−6 cm s^−1	75.5%	81.7%	90.7%
COC(=O)c1ccc2c(c1)NC(=O)/C2=C(\Nc1ccc(C(=O)N(OC)C2CCN(C)CC2)cc1)c1ccccc1 [Example 21]	6.79 nM	10.2 nM					95.5%	86.6%	53%
COC(=O)c1ccc2c(c1)NC(=O)/C2=C(\Nc1ccc(C(=O)N(C)OCCN(C)C)c(C)c1)c1ccccc1 [Example 22]	6.68 nM	10 nM					102%	74.1%	39.2%
COC(=O)c1ccc2c(c1)NC(=O)/C2=C(\Nc1ccc(C(=O)N(CCN(C)C)OC)cc1)c1ccccc1 [Example 23]		12.2 nM	51.8%	20 ×10⁻⁶ cm/s			93.1%	85.9%	67.9%
COC(=O)c1ccc2c(c1)NC(=O)/C2=C(\Nc1ccc(C(=O)N2CCN(C)CCO2)cc1)c1ccccc1 [Example 24]		15.5 nM	71.8%	44.8 ×10⁻⁶ cm/s			85.4%	104.7%	103.1%

Now from value to compound, other results behind:

IC50 (PDGFRβ [1])	Ki (PDGFRβ [2])	recovery at 5 hr, 10 μM (PAMPA permeability assay; [3])	Papp at 5 h, 10 μM (PAMPA permeability assay; PAMPA, 5 hr)	% Recovery (PAMPA permeability assay; [3])	Mean Papp (PAMPA permeability assay; pH 7, 10 μM, 5 hr)	SMILES	Cell viability at 100 nM (%) (MRC5 cells)	Cell viability at 300 nM (%) (MRC5 cells)	Cell viability at 1000 nM (%) (MRC5 cells)
21.5 nM	27.8 nM					COC(=O)c1ccc2c(c1)NC(=O)/C2=C(\Nc1ccc(C(=O)NOCCN2CCCCC2)cc1)c1ccccc1 [Example 8, (Z)-Methyl 2-oxo-3-(phenyl((4-((2-(piperidin-1-yl)ethoxy)carbamoyl)phenyl)amino)methylene)indoline-6-carboxylate]	93.4%	95.7%	91%
	11.6 nM	41%	0.564 ×10⁻⁶ cm/s			COC(=O)c1ccc2c(c1)NC(=O)/C2=C(\Nc1ccc(C(=O)NOCCN2CCOCC2)cc1)c1ccccc1 [Example 12]	104.8%	101.7%	79.4%
	11.1 nM	57.2%	0.434 ×10⁻⁶ cm/s			COC(=O)c1ccc2c(c1)NC(=O)/C2=C(\Nc1ccc(C(=O)N(C)OCCN2CCN(C)CC2)cc1)c1ccccc1 [Example 14]	110.8%	96.9%	87.5%
	14.1 nM					COC(=O)c1ccc2c(c1)NC(=O)/C2=C(\Nc1ccc(C(=O)NOCCN2CCOCC2)c(C)c1)c1ccccc1 [Example 16]	79%	59.9%	51.9%
	11.7 nM	91.9%	0.0142 ×10⁻⁶ cm/s			COC(=O)c1ccc2c(c1)NC(=O)/C2=C(\Nc1ccc(C(=O)NOCCN2CCN(C)CC2)c(C)c1)c1ccccc1 [Example 17]	83%	90.5%	92.5%
